Experimental data: article PMC7311426, “An amphipathic peptide with antibiotic activity against multidrug-resistant Gram-negative bacteria” (Nature Communications, 2020)
Residues, ends and D or L forms follow the SMILES beside them.

Tests used:
E. coli K12 MG1655 = assay: ATP release, BacTiter-Glo luminescence; format: cell-based, Escherichia coli; settings: 60 min
Procedure: ATP was measured using the BacTiter-Glo^TM Microbial Cell Viability Assay (Promega) following the manufacturer’s instructions. The assay was performed for three biological replicates at 37 °C, with luminescence recorded using a Tecan Infinite M1000 Pro plate reader. The fold reduction of ATP was calculated as: Fold reduction ATP = 1 − (Ltreat − Lmedia/Lcontrol − Lmedia); where Ltreat is the luminescence of treated cells, Lmedia is the luminescence of CAMHB without cells, and Lcontrol is the luminescence of untreated cells. Resultant graphs show mean (n = 7) and std error for each data point, prepared in Prism 8. DMSO was included as a control as piperacillin was solubilized in DMSO, with final assay concentration of 2.5%.

in vivo = settings: for level at 4 h / level at 8 h / level at 0.5 h / level at 1 h / level at 3 h / level at 12 h: Cross species PK, concentration (Fig 6 source data)
Procedure: The studies were performed at Fidelta Ltd, Croatia (mice), under review by the institutional ethics committee (CARE-Zg), and Covance Laboratories UK and Muenster Germany (cynomolgus monkey and minipig) in accordance with the requirements of the Animals (Scientific Procedures) Act 1989 and a maintained local ethical review. All studies were contracted by Adenium Biotech ApS. Mice were housed in polysulfone cages with an acclimatization period of 7 days prior to experiments with air temperature maintained at 22 °C with 55% humidity and light–dark cycles of 12 h light. Cynomolgus monkeys of age range 4–7 years were selected, tested for health, acclimatized for 2 weeks, and housed in single-animal climate controlled stainless-steel cages with a minimum of 8 air changes per hour with air temperature at 19–25 °C and relative humidity 40–70%, and light–dark cycles of 12 h light. Minipigs of age range 4–6 months were selected, tested for health, acclimatized for 2 weeks, and housed in single-animal pens with 15–20 air changes per hour with air temperature at 22–26 °C with light–dark cycles of 12 h light.
Mouse, monkey, and minipig i.v. 2-h infusion: AA139 formulated in Ringer’s acetate was administered intravenously to CD1 mice, cynomolgus monkeys (Macaca fascicularis) and Göttingen A/S minipigs (Ellegaard Göttingen, Denmark) by continuous infusion over 2 h (minipig under anesthesia). Individual dose volumes were based on individual body weight. Blood samples were collected at 0.5, 1, 2, 3, 4, 8, 10, and 12 h after the start of the infusion (n = 6 mice, male and female combined; n = 2 monkeys, one male and one female; n = 2 minipigs, one male and one female). Bioanalytical analysis was performed by SPE followed by LC–MS/MS. The method was validated for an AA139 concentration range of 43.4–21,700 ng mL^−1. Pharmacokinetic parameters were calculated by standard non-compartmental analysis (NCA) using Phoenix WinNonlin version 6.2. The studies were conducted in compliance with Good Laboratory Practice (GLP) regulations.

[1] = tested on: HepG2 liver hepatocellular carcinoma cells; assay: in vitro
[2] = tested on: E. coli (AID#172 & ATCC 25922); settings: E. coli ATCC 25922; quality control range printed beside agar dilution MIC; cited from earlier work
Source text: Supplement 41467_2020_16950_MOESM9_ESM.xlsx, sheet "Supp table 9" | column: Agar (Noble) Dilution MIC Results for AA139 and Comparators

[3] = Göttingen, minipig, in vivo, iv, minipig 2h i.v. infusion, replicate 1
[4] = Göttingen, minipig, in vivo, iv, minipig 2h i.v. infusion, replicate 2
[5] = both, Göttingen, minipig, in vivo, iv, 10 mg kg-1
[6] = both, cynomolgus monkey, in vivo, iv, 10 mg kg-1
[7] = cynomolgus monkey, in vivo, iv, monkey 2h i.v. infusion, replicate 1
[8] = cynomolgus monkey, in vivo, iv, monkey 2h i.v. infusion, replicate 2
[9] = cynomolgus monkey, in vivo, iv, monkey 2h i.v. infusion, replicate 3
[10] = cynomolgus monkey, in vivo, iv, monkey 2h i.v. infusion, replicate 4

**Q.** For colistin, which “Concentration at which maximum ATP release is reached” value (E. coli K12 MG1655) is on record?
**A.** Its value is “at its MIC”.

**Q.** With `CC(C)[C@@H]1NC(=O)[C@H](Cc2ccc(O)cc2)NC(=O)[C@H](Cc2c[nH]c3ccccc23)NC(=O)[C@@H](NC(=O)[C@H](Cc2ccccc2)NC(=O)CN)CSSC[C@@H](C(=O)N[C@@H](CC(N)=O)C(=O)O)NC(=O)[C@H](CCCNC(=N)N)NC(=O)[C@H](CCCNC(=N)N)NC(=O)[C@H](Cc2ccc(O)cc2)NC(=O)[C@@H]2CSSC[C@H](NC1=O)C(=O)N[C@@H](C)C(=O)N[C@@H](CCCNC(=N)N)C(=O)N[C@@H](CCCNC(=N)N)C(=O)N[C@@H](CC(N)=O)C(=O)NCC(=O)N[C@@H](C)C(=O)N[C@@H](CCCNC(=N)N)C(=O)N[C@@H](C(C)C)C(=O)N2` [AA139] (HELM PEPTIDE1{G.F.C.W.Y.V.C.A.R.R.N.G.A.R.V.C.Y.R.R.C.N}$PEPTIDE1,PEPTIDE1,3:R3-20:R3|PEPTIDE1,PEPTIDE1,7:R3-16:R3$$$V2.0) as the compound, how does the level at 4 h (in vivo; [3]) read?
**A.** The level at 4 h was 2850 ng/mL.

**Q.** What about the level at 4 h (in vivo; [4]) of the same compound?
**A.** Its level at 4 h is 3110 ng/mL.

**Q.** What about the level at 8 h (in vivo; [3]) of the same compound?
**A.** The level at 8 h was 1510 ng/mL.

**Q.** What about the level at 8 h (in vivo; [4]) of the same compound?
**A.** The level at 8 h was 1240 ng/mL.

**Q.** What about the Vd (in vivo; [5]) of the same compound?
**A.** Its Vd is 1.2 L/kg.

**Q.** What about the half-life (in vivo; [5]) of the same compound?
**A.** The half-life was 3.1 h.

**Q.** What about the level at 0.5 h (in vivo; both, Göttingen, minipig, in vivo, iv, minipig 2h i.v. infusion, time 0.5 h, replicate 1) of the same compound?
**A.** The level at 0.5 h was 4830 ng/mL.

**Q.** What about the level at 1 h (in vivo; both, Göttingen, minipig, in vivo, iv, minipig 2h i.v. infusion, time 1 h, replicate 2) of the same compound?
**A.** Its level at 1 h is 6780 ng/mL.

**Q.** And the level at 3 h (in vivo; both, Göttingen, minipig, in vivo, iv, minipig 2h i.v. infusion, replicate 1)?
**A.** Its level at 3 h is 4100 ng/mL.

**Q.** And the level at 3 h (in vivo; both, Göttingen, minipig, in vivo, iv, minipig 2h i.v. infusion, replicate 2)?
**A.** The level at 3 h was 5080 ng/mL.

**Q.** What about the AUC(0-inf) (in vivo; [6]) of the same compound?
**A.** Its AUC(0-inf) is 40800 ng·h/mL.

**Q.** What about the Vd (in vivo; [6]) of the same compound?
**A.** The Vd was 0.87 L/kg.

**Q.** What about the half-life (in vivo; [6]) of the same compound?
**A.** The half-life was 2.4 h.

**Q.** What about the level at 0.5 h (in vivo; both, cynomolgus monkey, in vivo, iv, monkey 2h i.v. infusion, time 0.5 h, replicate 2) of the same compound?
**A.** Its level at 0.5 h is 6540 ng/mL.

**Q.** What about the level at 0.5 h (in vivo; both, cynomolgus monkey, in vivo, iv, monkey 2h i.v. infusion, time 0.5 h, replicate 3) of the same compound?
**A.** Its level at 0.5 h is 7630 ng/mL.

**Q.** And the level at 0.5 h (in vivo; both, cynomolgus monkey, in vivo, iv, monkey 2h i.v. infusion, time 0.5 h, replicate 4)?
**A.** Its level at 0.5 h is 13500 ng/mL.

**Q.** What about the level at 1 h (in vivo; both, cynomolgus monkey, in vivo, iv, monkey 2h i.v. infusion, time 1 h, replicate 1) of the same compound?
**A.** The level at 1 h was 9000 ng/mL.

**Q.** What about the level at 1 h (in vivo; both, cynomolgus monkey, in vivo, iv, monkey 2h i.v. infusion, time 1 h, replicate 2) of the same compound?
**A.** Its level at 1 h is 9340 ng/mL.

**Q.** And the level at 1 h (in vivo; both, cynomolgus monkey, in vivo, iv, monkey 2h i.v. infusion, time 1 h, replicate 3)?
**A.** Its level at 1 h is 8480 ng/mL.

**Q.** What about the level at 3 h (in vivo; both, cynomolgus monkey, in vivo, iv, monkey 2h i.v. infusion, replicate 1) of the same compound?
**A.** The level at 3 h was 5390 ng/mL.

**Q.** What about the level at 3 h (in vivo; both, cynomolgus monkey, in vivo, iv, monkey 2h i.v. infusion, replicate 2) of the same compound?
**A.** Its level at 3 h is 5440 ng/mL.

**Q.** And the level at 3 h (in vivo; both, cynomolgus monkey, in vivo, iv, monkey 2h i.v. infusion, replicate 3)?
**A.** The level at 3 h was 4440 ng/mL.

**Q.** And the level at 3 h (in vivo; both, cynomolgus monkey, in vivo, iv, monkey 2h i.v. infusion, replicate 4)?
**A.** Its level at 3 h is 6120 ng/mL.

**Q.** What about the level at 4 h (in vivo; [7]) of the same compound?
**A.** Its level at 4 h is 3590 ng/mL.

**Q.** What about the level at 4 h (in vivo; [8]) of the same compound?
**A.** Its level at 4 h is 3930 ng/mL.

**Q.** And the level at 4 h (in vivo; [9])?
**A.** Its level at 4 h is 2240 ng/mL.

**Q.** And the level at 4 h (in vivo; [10])?
**A.** The level at 4 h was 2830 ng/mL.

**Q.** What about the level at 8 h (in vivo; [7]) of the same compound?
**A.** Its level at 8 h is 1270 ng/mL.

**Q.** What about the level at 8 h (in vivo; [8]) of the same compound?
**A.** Its level at 8 h is 1290 ng/mL.

**Q.** And the level at 8 h (in vivo; [9])?
**A.** Its level at 8 h is 2720 ng/mL.

**Q.** What about the level at 8 h (in vivo; [10]) of the same compound?
**A.** Its level at 8 h is 2460 ng/mL.

**Q.** And the level at 12 h (in vivo; [9])?
**A.** Its level at 12 h is 860 ng/mL.

**Q.** What about the level at 12 h (in vivo; [10]) of the same compound?
**A.** Its level at 12 h is 802 ng/mL.

**Q.** And the “Cross species PK, concentration (Fig 6 source data)” value (shortened to “Cross species PK, concentration”) (in vivo; minipig 2h i.v. infusion, time 0.5 h, replicate 2)?
**A.** The value was 6298.

**Q.** And the “Cross species PK, concentration” value (in vivo; minipig 2h i.v. infusion, time 1 h, replicate 1)?
**A.** Its value is 4846.

**Q.** And the “Cross species PK, concentration” value (in vivo; minipig 2h i.v. infusion, time 2 h, replicate 1)?
**A.** The value was 7751.

**Q.** And the “Cross species PK, concentration” value (in vivo; minipig 2h i.v. infusion, time 2 h, replicate 2)?
**A.** Its value is 9612.

**Q.** What about the “Cross species PK, concentration” value (in vivo; monkey 2h i.v. infusion, time 0.5 h, replicate 1) of the same compound?
**A.** Its value is 6780.

**Q.** And the “Cross species PK, concentration” value (in vivo; monkey 2h i.v. infusion, time 1 h, replicate 4)?
**A.** Its value is 15900.

**Q.** And the “Cross species PK, concentration” value (in vivo; monkey 2h i.v. infusion, time 2 h, replicate 1)?
**A.** The value was 8610.

**Q.** And the “Cross species PK, concentration” value (in vivo; monkey 2h i.v. infusion, time 2 h, replicate 2)?
**A.** The value was 11100.

**Q.** And the “Cross species PK, concentration” value (in vivo; monkey 2h i.v. infusion, time 2 h, replicate 3)?
**A.** Its value is 21300.

**Q.** What about the “Cross species PK, concentration” value (in vivo; monkey 2h i.v. infusion, time 2 h, replicate 4) of the same compound?
**A.** The value was 6780.

**Q.** And the “CC50 HepG2” value [1]?
**A.** The value was >300 µg/mL.

**Q.** And the “CC50 HepG2, Mean” value [1]?
**A.** Its value is >300 µg/mL.

**Q.** Which “MIC QC range” value [2] does the source give for `C[C@H]1COc2c(N3CCN(C)CC3)c(F)cc3c(=O)c(C(=O)O)cn1c23` [LEV, levofloxacin, reference compound] here?
**A.** Its value is 0.008 to 0.06 µg/mL.
